What was measured:
[1] = Solubility of AQS ionic derivatives in MeCN, measured by UV-vis (Beer's law); format: physicochemical; conditions: cooled to room temperature after stirring at 40° C.
From the text: Beer's law was used to measure the concentration of the solution using pre-determined molar extinction coefficient using standard calibration curve.

[2] = vs. SHE in DMSO; cited from earlier work
[3] = Cyclic voltammetry of AQS (Randles-Sevcik analysis); format: physicochemical
Procedure: Cyclic voltammetry was performed at room temperature in inert atmosphere of dinitrogen using three electrode cell on a VersaSTAT3 workstation. (Princeton Applied Research, USA). Glassy carbon (3 mm, Basi) was employed as working electrode and platinum wire was used as counter electrode. Ag wire was used as pseudo reference electrode with Fc/Fc^+ couple as an internal standard for initial redox potential evaluation. Subsequently, all potentials were referenced to SHE. Diffusion coefficient was calculated using Randles-Sevcik equation as follow.
where, ip is the peak current, n is number electron in redox reaction, F is faraday constant, A is geometrical surface area of electrode, C is the bulk concentration of analyte, ν is scan rate, D is diffusion coefficient and R and T are gas constant and absolute temperature. CV curves were obtained at various scan rate and peak current were plotted against square root of scan rate. Slope (m) of the linear fit was used to determine diffusion coefficient using following equation.

[4] = vanadium(iv) ion chelation; cited from earlier work

Work on O=C1c2ccccc2C(=O)c2cc(S(=O)(=O)[O-])ccc21.[Na+] [NaAQS, sodium anthraquinone-2-sulfonate, reference compound] yielded a solubility at 15 min ([1]; MeCN (acetonitrile), organic solvent or mixture, thermodynamic from solid) of under 1 mM.
Work on CC[N+](CC)(CC)CC.O=C1c2ccccc2C(=O)c2cc(S(=O)(=O)[O-])ccc21 [N2222AQS] yielded a Solubility [1] of 105 mM.
In the case of “vanadium(IV/V)bis-hydroxyiminodiacetate [VBH]”, the “E° (standard potential)” value [2] is given as 0.30 V.
In the case of O=C1c2ccccc2C(=O)c2cc(S(=O)(=O)O)ccc21 [AQS, Anthraquinone 2-sulfonate], the diffusion coefficient ([3]; CV at various scan rates, Randles-Sevcik plot) is reported as 8.46×10^−6 cm^2 s^−1, the “potential of first electrochemically reversible wave (1^−/2^− couple)” value ([3]; vs SHE) is reported as −0.6 V and the “potential of second electrochemically reversible wave (2^−/3^− couple)” value ([3]; vs SHE) is reported as −1.2 V.
O=C1c2ccccc2C(=O)c2ccccc21 [AQ, reference compound] gave a Solubility [1] of under 5 mM.
In the case of C[C@@H](C(=O)[O-])N(O)[C@@H](C)C(=O)[O-].C[C@@H](C(=O)[O-])N(O)[C@@H](C)C(=O)[O-].[V+4] [Amavadin], the “log equilibrium constant (log Keq), stability constant” value [4] is listed as 23.
Compound CCC[N+](CCC)(CCC)CCC.O=C1c2ccccc2C(=O)c2cc(S(=O)(=O)[O-])ccc21 [N3333AQS] has a Solubility [1] of 640 mM.
In the case of CCCC[N+](CCCC)(CCCC)CCCC.O=C1c2ccccc2C(=O)c2cc(S(=O)(=O)[O-])ccc21 [N4444AQS], the Solubility [1] is reported as 1260 mM.
